Assay results as given in the kinase profiling compilation of Christmann-Franck et al. (2016).

Experiments:
Experiment in all cases: KINOMEscan competition binding
Conditions in all cases: compound 10.0 µM
PDPK1 (human) = PDPK1 (human) (UniProt O15530)
AKT2 (human) = AKT2 (human) (UniProt P31751)
TESK1 (human) = TESK1 (human) (UniProt Q15569)
ERBB4 (human) = ERBB4 (human) (UniProt Q15303)
PTK6 (human) = PTK6 (human) (UniProt Q13882)
AKT1 (human) = AKT1 (human) (UniProt P31749)
LIMK2 (human) = LIMK2 (human) (UniProt P53671)
ADCK3 (human) = ADCK3 (human) (UniProt Q8NI60)
MAPK1 (human) = MAPK1 (human) (UniProt P28482)
CDK11B (human) = CDK11B (human) (UniProt P21127)
MAP3K3 (human) = MAP3K3 (human) (UniProt Q99759)
CDC2L2 (human) = CDC2L2 (human) (UniProt Q9UQ88)
IKBKE (human) = IKBKE (human) (UniProt Q14164)
PIP5K1A (human) = PIP5K1A (human) (UniProt Q99755)
STK4 (human) = STK4 (human) (UniProt Q13043)
Chain of STK4 (human) (Q13043 whole entry, looked up): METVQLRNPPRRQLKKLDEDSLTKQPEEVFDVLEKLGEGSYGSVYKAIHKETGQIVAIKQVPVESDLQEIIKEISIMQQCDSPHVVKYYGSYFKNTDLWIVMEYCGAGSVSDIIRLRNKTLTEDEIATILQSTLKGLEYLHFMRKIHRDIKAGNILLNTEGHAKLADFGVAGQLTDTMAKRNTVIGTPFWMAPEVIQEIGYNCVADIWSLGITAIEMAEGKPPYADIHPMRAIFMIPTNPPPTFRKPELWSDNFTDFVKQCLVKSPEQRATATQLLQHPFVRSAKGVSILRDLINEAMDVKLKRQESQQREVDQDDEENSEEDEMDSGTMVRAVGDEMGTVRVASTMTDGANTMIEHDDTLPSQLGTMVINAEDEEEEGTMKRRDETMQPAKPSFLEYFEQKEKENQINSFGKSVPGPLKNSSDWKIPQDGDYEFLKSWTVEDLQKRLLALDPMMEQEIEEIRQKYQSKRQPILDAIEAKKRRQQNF

MAPK6 (human) = MAPK6 (human) (UniProt Q16659)
[1] = system: KIT (human), P10721 [D816V]
EPHB2 (human) = EPHB2 (human) (UniProt P29323)
TGFBR2 (human) = TGFBR2 (human) (UniProt P37173)
Chain of TGFBR2 (human) (P37173 whole entry, looked up): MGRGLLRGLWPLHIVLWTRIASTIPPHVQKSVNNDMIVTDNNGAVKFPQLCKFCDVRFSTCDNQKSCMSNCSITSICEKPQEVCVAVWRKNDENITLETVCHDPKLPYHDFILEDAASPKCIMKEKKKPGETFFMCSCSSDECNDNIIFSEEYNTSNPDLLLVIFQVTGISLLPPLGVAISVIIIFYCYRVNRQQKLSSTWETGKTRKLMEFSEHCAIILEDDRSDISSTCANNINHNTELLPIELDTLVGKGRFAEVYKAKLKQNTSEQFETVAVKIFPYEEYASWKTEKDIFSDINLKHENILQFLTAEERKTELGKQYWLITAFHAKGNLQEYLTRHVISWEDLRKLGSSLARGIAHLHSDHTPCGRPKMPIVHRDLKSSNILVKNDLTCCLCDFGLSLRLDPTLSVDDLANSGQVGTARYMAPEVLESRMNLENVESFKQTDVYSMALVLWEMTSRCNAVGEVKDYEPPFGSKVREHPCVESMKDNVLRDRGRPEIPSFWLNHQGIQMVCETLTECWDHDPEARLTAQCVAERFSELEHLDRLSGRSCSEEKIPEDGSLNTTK

TSSK1B (human) = TSSK1B (human) (UniProt Q9BXA7)
NEK7 (human) = NEK7 (human) (UniProt Q8TDX7)
STK10 (human) = STK10 (human) (UniProt O94804)
PLK3 (human) = PLK3 (human) (UniProt Q9H4B4)
MAPK15 (human) = MAPK15 (human) (UniProt Q8TD08)
DAPK3 (human) = DAPK3 (human) (UniProt O43293)
PIP4K2B (human) = PIP4K2B (human) (UniProt P78356)
MARK3 (human) = MARK3 (human) (UniProt P27448)
MAPK11 (human) = MAPK11 (human) (UniProt Q15759)
Chain of MAPK11 (human) (Q15759 whole entry, looked up): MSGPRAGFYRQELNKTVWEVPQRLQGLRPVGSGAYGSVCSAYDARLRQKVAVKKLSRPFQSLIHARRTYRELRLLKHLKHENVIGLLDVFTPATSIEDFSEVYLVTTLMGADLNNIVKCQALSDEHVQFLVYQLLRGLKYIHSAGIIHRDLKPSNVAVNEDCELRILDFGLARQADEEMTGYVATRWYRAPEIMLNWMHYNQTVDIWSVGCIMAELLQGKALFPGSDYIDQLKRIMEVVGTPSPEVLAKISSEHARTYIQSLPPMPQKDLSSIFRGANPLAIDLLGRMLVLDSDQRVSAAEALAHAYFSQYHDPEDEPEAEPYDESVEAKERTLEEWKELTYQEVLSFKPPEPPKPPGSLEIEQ

MAP2K6 (human) = MAP2K6 (human) (UniProt P52564)
MAPKAPK5 (human) = MAPKAPK5 (human) (UniProt Q8IW41)
Chain of MAPKAPK5 (human) (Q8IW41 whole entry, looked up): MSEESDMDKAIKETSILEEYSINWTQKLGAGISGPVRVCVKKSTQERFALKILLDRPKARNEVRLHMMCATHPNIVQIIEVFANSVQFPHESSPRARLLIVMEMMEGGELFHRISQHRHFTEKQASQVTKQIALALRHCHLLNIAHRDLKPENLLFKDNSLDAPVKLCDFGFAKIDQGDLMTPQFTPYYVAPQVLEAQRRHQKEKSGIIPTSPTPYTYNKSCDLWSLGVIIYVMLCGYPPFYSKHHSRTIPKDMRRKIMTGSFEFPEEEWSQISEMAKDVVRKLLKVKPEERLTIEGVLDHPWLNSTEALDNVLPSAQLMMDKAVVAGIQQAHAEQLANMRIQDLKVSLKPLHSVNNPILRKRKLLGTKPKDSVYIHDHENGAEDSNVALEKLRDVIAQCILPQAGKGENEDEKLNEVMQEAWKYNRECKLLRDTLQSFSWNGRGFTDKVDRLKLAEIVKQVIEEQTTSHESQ

TAOK3 (human) = TAOK3 (human) (UniProt Q9H2K8)
Chain of TAOK3 (human) (Q9H2K8 whole entry, looked up): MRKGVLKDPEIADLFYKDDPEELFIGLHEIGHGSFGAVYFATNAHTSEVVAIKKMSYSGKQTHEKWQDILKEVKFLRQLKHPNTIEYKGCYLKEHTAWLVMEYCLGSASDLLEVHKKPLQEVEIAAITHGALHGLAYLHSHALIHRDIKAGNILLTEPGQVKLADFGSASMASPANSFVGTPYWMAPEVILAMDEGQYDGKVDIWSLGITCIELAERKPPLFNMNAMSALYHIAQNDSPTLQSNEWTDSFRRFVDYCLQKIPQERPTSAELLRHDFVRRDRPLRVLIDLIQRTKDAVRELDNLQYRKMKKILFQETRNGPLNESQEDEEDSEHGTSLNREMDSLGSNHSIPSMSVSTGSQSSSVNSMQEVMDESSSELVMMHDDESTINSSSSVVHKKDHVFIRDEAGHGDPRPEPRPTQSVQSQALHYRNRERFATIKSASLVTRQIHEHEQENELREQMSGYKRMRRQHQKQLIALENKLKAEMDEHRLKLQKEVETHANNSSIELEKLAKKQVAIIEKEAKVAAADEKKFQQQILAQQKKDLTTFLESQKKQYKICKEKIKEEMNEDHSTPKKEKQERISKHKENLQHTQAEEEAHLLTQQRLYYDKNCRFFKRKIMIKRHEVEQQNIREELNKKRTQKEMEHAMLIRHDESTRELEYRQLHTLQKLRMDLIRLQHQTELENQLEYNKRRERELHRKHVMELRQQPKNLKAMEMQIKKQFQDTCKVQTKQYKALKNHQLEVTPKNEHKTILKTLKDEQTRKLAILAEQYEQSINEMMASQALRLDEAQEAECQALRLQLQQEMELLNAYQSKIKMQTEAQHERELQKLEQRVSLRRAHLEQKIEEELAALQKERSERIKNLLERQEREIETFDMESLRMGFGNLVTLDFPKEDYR

PTK2 (human) = PTK2 (human) (UniProt Q05397)
Chain of PTK2 (human) (Q05397 whole entry, looked up): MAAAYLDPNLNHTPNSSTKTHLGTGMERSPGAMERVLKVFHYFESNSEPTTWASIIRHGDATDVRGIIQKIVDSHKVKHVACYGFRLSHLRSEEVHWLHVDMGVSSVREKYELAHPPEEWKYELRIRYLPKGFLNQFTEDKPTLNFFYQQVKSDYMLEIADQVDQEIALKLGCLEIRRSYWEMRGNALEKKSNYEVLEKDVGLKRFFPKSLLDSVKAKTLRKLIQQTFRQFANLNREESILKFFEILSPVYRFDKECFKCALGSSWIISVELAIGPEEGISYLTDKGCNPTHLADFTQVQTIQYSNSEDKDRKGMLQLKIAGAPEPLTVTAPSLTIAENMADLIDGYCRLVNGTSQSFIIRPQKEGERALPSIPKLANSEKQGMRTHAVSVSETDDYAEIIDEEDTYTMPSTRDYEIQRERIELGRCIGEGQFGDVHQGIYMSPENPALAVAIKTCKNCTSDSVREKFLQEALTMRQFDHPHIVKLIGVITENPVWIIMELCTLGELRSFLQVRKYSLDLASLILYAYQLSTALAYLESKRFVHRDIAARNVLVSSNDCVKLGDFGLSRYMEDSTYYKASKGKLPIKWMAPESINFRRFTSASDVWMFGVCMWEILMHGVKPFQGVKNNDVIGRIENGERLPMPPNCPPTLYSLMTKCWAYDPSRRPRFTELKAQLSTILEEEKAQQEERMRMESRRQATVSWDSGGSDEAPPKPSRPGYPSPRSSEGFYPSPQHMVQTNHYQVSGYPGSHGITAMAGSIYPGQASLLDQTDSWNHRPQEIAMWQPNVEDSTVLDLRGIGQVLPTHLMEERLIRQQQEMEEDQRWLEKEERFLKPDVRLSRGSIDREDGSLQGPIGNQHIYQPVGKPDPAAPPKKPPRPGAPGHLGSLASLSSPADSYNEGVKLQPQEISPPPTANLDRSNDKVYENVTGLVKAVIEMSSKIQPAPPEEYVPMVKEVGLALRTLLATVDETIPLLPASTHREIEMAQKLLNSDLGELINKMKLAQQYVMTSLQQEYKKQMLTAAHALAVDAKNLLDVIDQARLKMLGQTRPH

NLK (human) = NLK (human) (UniProt Q9UBE8)
SGK110 (human) = SGK110 (human) (UniProt P0C264)
DCLK1 (human) = DCLK1 (human) (UniProt O15075)
LTK (human) = LTK (human) (UniProt P29376)
Chain of LTK (human) (P29376 whole entry, looked up): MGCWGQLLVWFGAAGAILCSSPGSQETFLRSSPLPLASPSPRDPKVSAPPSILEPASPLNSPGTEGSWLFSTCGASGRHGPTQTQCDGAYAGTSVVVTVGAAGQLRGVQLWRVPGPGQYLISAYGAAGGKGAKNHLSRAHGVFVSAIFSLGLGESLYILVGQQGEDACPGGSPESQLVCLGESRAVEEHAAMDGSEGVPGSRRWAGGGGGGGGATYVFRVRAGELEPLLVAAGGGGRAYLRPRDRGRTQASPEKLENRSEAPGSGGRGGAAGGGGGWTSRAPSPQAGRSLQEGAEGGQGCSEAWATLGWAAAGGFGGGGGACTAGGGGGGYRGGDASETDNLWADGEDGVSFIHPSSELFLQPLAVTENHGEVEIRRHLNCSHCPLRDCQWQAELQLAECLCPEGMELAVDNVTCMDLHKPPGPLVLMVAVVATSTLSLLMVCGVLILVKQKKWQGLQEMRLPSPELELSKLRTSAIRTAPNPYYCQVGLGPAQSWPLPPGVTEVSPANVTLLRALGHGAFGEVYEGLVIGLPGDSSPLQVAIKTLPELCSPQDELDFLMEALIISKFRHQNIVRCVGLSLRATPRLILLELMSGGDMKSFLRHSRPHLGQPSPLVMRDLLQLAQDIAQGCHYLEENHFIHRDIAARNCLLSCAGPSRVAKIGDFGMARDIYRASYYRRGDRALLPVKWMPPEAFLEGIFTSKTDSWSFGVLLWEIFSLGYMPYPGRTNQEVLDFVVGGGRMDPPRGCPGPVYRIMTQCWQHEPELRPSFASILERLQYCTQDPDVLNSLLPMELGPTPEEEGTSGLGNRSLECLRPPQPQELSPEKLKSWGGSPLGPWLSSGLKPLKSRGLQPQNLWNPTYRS

EPHB3 (human) = EPHB3 (human) (UniProt P54753)
STK16 (human) = STK16 (human) (UniProt O75716)
Chain of STK16 (human) (O75716 whole entry, looked up): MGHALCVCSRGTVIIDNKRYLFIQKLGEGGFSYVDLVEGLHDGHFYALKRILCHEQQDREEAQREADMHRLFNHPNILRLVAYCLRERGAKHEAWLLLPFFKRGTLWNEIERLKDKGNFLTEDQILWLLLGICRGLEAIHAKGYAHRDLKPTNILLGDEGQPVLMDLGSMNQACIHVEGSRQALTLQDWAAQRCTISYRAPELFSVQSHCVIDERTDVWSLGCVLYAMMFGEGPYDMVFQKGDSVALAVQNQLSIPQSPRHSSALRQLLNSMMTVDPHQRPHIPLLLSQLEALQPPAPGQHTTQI

RPS6KA4 KD1 (human) = RPS6KA4 KD1 (human) (UniProt O75676)
FES (human) = FES (human) (UniProt P07332)

| SMILES | kinase still bound, per cent of control (PDPK1 (human)) [%] | kinase still bound, per cent of control (AKT2 (human)) [%] | kinase still bound, per cent of control (TESK1 (human)) [%] | kinase still bound, per cent of control (ERBB4 (human)) [%] | kinase still bound, per cent of control (PTK6 (human)) [%] | kinase still bound, per cent of control (AKT1 (human)) [%] | kinase still bound, per cent of control (LIMK2 (human)) [%] | kinase still bound, per cent of control (ADCK3 (human)) [%] | kinase still bound, per cent of control (MAPK1 (human)) [%] | kinase still bound, per cent of control (CDK11B (human)) [%] | kinase still bound, per cent of control (MAP3K3 (human)) [%] | kinase still bound, per cent of control (CDC2L2 (human)) [%] | kinase still bound, per cent of control (IKBKE (human)) [%] | kinase still bound, per cent of control (PIP5K1A (human)) [%] | kinase still bound, per cent of control (STK4 (human)) [%] | kinase still bound, per cent of control (MAPK6 (human)) [%] | kinase still bound, per cent of control [1] [%] | kinase still bound, per cent of control (EPHB2 (human)) [%] | kinase still bound, per cent of control (TGFBR2 (human)) [%] | kinase still bound, per cent of control (TSSK1B (human)) [%] | further results |
| --- | --- | --- | --- | --- | --- | --- | --- | --- | --- | --- | --- | --- | --- | --- | --- | --- | --- | --- | --- | --- | --- |
| CC[C@@H]1C(=O)N(C)c2cnc(Nc3ccc(C(=O)NC4CCN(C)CC4)cc3OC)nc2N1C1CCCC1 | 100 | 100 | 100 | 100 | 100 | 100 | 100 | 100 | 100 | 100 | 100 | 100 | 100 | 100 | 100 | 100 | 100 | 100 | 100 | 100 | kinase still bound, per cent of control (NEK7 (human)): 100%; kinase still bound, per cent of control (STK10 (human)): 100%; kinase still bound, per cent of control (PLK3 (human)): 0%; kinase still bound, per cent of control (MAPK15 (human)): 100%; kinase still bound, per cent of control (DAPK3 (human)): 3.6%; kinase still bound, per cent of control (PIP4K2B (human)): 100%; kinase still bound, per cent of control (MARK3 (human)): 100%; kinase still bound, per cent of control (MAPK11 (human)): 100%; kinase still bound, per cent of control (MAP2K6 (human)): 100%; kinase still bound, per cent of control (MAPKAPK5 (human)): 100%; kinase still bound, per cent of control (TAOK3 (human)): 100%; kinase still bound, per cent of control (PTK2 (human)): 2.4%; kinase still bound, per cent of control (NLK (human)): 100%; kinase still bound, per cent of control (SGK110 (human)): 100%; kinase still bound, per cent of control (DCLK1 (human)): 5.4%; kinase still bound, per cent of control (LTK (human)): 24%; kinase still bound, per cent of control (EPHB3 (human)): 100%; kinase still bound, per cent of control (STK16 (human)): 14%; kinase still bound, per cent of control (RPS6KA4 KD1 (human)): 100% |
| CCOc1cc2ncc(C#N)c(Nc3ccc(OCc4ccccn4)c(Cl)c3)c2cc1NC(=O)/C=C/CN(C)C | 88 | 99 | 100 | 0 | 100 | 98 | 100 | 95 | 100 | 97 | 3.8 | 100 | 100 | 100 | 17 | 100 | 70 | 86 | 100 | 100 | kinase still bound, per cent of control (NEK7 (human)): 100%; kinase still bound, per cent of control (STK10 (human)): 0%; kinase still bound, per cent of control (PLK3 (human)): 94%; kinase still bound, per cent of control (MAPK15 (human)): 100%; kinase still bound, per cent of control (DAPK3 (human)): 91%; kinase still bound, per cent of control (PIP4K2B (human)): 95%; kinase still bound, per cent of control (MAPK11 (human)): 100%; kinase still bound, per cent of control (MAP2K6 (human)): 100%; kinase still bound, per cent of control (MAPKAPK5 (human)): 89%; kinase still bound, per cent of control (TAOK3 (human)): 75%; kinase still bound, per cent of control (PTK2 (human)): 65%; kinase still bound, per cent of control (NLK (human)): 95%; kinase still bound, per cent of control (SGK110 (human)): 100%; kinase still bound, per cent of control (DCLK1 (human)): 100%; kinase still bound, per cent of control (LTK (human)): 100%; kinase still bound, per cent of control (EPHB3 (human)): 100%; kinase still bound, per cent of control (STK16 (human)): 96%; kinase still bound, per cent of control (RPS6KA4 KD1 (human)): 100% |
| C[C@@H](Oc1cc(-n2cnc3ccc(CN4CCN(C)CC4)cc32)sc1C(N)=O)c1ccccc1C(F)(F)F | 100 | 100 | 100 | 88 | 93 | 100 | 100 | 77 | 100 | 100 | 88 | 100 | 58 | 14 | 100 | 100 | 16 | 99 | 100 | 19 | kinase still bound, per cent of control (NEK7 (human)): 66%; kinase still bound, per cent of control (STK10 (human)): 0%; kinase still bound, per cent of control (PLK3 (human)): 3.6%; kinase still bound, per cent of control (MAPK15 (human)): 52%; kinase still bound, per cent of control (DAPK3 (human)): 15%; kinase still bound, per cent of control (PIP4K2B (human)): 5.8%; kinase still bound, per cent of control (MARK3 (human)): 63%; kinase still bound, per cent of control (MAPK11 (human)): 100%; kinase still bound, per cent of control (MAP2K6 (human)): 98%; kinase still bound, per cent of control (MAPKAPK5 (human)): 89%; kinase still bound, per cent of control (FES (human)): 88%; kinase still bound, per cent of control (PTK2 (human)): 99%; kinase still bound, per cent of control (NLK (human)): 100%; kinase still bound, per cent of control (SGK110 (human)): 100%; kinase still bound, per cent of control (DCLK1 (human)): 40%; kinase still bound, per cent of control (LTK (human)): 100%; kinase still bound, per cent of control (EPHB3 (human)): 100%; kinase still bound, per cent of control (STK16 (human)): 65%; kinase still bound, per cent of control (RPS6KA4 KD1 (human)): 68% |
| O=C(NOC[C@H](O)CO)c1ccc(F)c(F)c1Nc1ccc(I)cc1F | 71 | 100 | 98 | 100 | 46 | 81 | 100 | 86 | 100 | 97 | 98 | 100 | 100 | 91 | 100 | 83 | 87 | 73 | 100 | 100 | kinase still bound, per cent of control (NEK7 (human)): 95%; kinase still bound, per cent of control (PLK3 (human)): 100%; kinase still bound, per cent of control (MAPK15 (human)): 100%; kinase still bound, per cent of control (DAPK3 (human)): 100%; kinase still bound, per cent of control (PIP4K2B (human)): 100%; kinase still bound, per cent of control (MARK3 (human)): 91%; kinase still bound, per cent of control (MAPK11 (human)): 100%; kinase still bound, per cent of control (MAP2K6 (human)): 100%; kinase still bound, per cent of control (MAPKAPK5 (human)): 100%; kinase still bound, per cent of control (TAOK3 (human)): 89%; kinase still bound, per cent of control (FES (human)): 100%; kinase still bound, per cent of control (PTK2 (human)): 85%; kinase still bound, per cent of control (NLK (human)): 77%; kinase still bound, per cent of control (SGK110 (human)): 100%; kinase still bound, per cent of control (DCLK1 (human)): 100%; kinase still bound, per cent of control (LTK (human)): 100%; kinase still bound, per cent of control (EPHB3 (human)): 89%; kinase still bound, per cent of control (STK16 (human)): 99%; kinase still bound, per cent of control (RPS6KA4 KD1 (human)): 86% |
